Experimental data published in US20250214932A1, “T-TYPE CALCIUM CHANNEL MODULATORS COMPRISING AN AZASPIRONONANE CORE AND METHODS OF USE THEREOF” (Praxis Precision Medicines, Inc., priority 2022, published 2025).
Read-outs that look alike come from different tables or passages of the source.

Biological target: Human Cav3.1 (Homo sapiens (Human), UniProt O43497)
Test: Human Cav3.1 calcium channel patch clamp assay (SyncroPatch 384PE, HEK-293 natClytin/TASK1+Cav3.1 cell line)
Type: cell-based
Protocol: Pulse generation and data collection were performed with PatchController384 V1.3.0 and DataController384 V1.2.1 (Nanion Technologies). Off-line analysis was performed using Excel and Graphpad Prism (V 8.4.2) with complete data files uploaded to Dotmatics. The access resistance and apparent membrane capacitance were estimated using built-in protocols. Current was recorded in whole cell configuration from a population of cells. The cells were lifted, triturated, and resuspended at 800,000 cells/ml. The cells were allowed to recover in the cell hotel prior to experimentation. Currents were recorded at room temperature. The external solution contained the following (in mM): NaCl 80, NMDG 60, KCl 4, MgCl2 1, CaCl2 6, glucose 5 and HEPES 10 (pH=7.4, Osmolarity ˜300 mOsm). The extracellular solution was used as the wash, reference and compound delivery solution. […] The compound plate was created at 2× concentrated in the extracellular solution. The compound was diluted to 1:2 when added to the recording well. The amount of DMSO in the extracellular solution was held constant at the level used for the highest tested concentration. For the voltage clamp experiments on Cav3.1, data were sampled at 10 KHz. After establishment of the seal and the passage in the whole cell configuration, the cells were held at −120 mV. Cav3.1 current was evoked using a 100 ms step to −20 mV (to measure resting state block), followed by a 1600 ms step to −65 mV and a second 100 ms step to −20 mV (to measure voltage dependent block). The voltage protocol was applied every 15 seconds in the absence and in the presence of the compounds under investigation. […] Current amplitude (pA) was measured in the peak 1 and 2. The average of last 3 sweeps of each liquid period (vehicle, compound under investigation, full block) was calculated. Nickel-sensitive current was used to calculate the % of inhibition in the presence of the compound under investigation.
Pulse generation and data collection were performed with PatchController384 V1.3.0 and DataController384 V1.2.1 (Nanion Technologies). Off-line analysis was performed using Excel and Graphpad Prism (V 8.4.2) with complete data files uploaded to Dotmatics. The access resistance and apparent membrane capacitance were estimated using built-in protocols. Current was recorded in whole cell configuration from a population of cells.
The cells were lifted, triturated, and resuspended at 800,000 cells/ml. The cells were allowed to recover in the cell hotel prior to experimentation. Currents were recorded at room temperature. The external solution contained the following (in mM): NaCl 80, NMDG 60, KCl 4, MgCl2 1, CaCl2 6, glucose 5 and HEPES 10 (pH=7.4, Osmolarity ˜300 mOsm). The extracellular solution was used as the wash, reference and compound delivery solution.
The compound plate was created at 2× concentrated in the extracellular solution. The compound was diluted to 1:2 when added to the recording well. The amount of DMSO in the extracellular solution was held constant at the level used for the highest tested concentration. For the voltage clamp experiments on Cav3.1, data were sampled at 10 KHz. After establishment of the seal and the passage in the whole cell configuration, the cells were held at −120 mV. Cav3.1 current was evoked using a 100 ms step to −20 mV (to measure resting state block), followed by a 1600 ms step to −65 mV and a second 100 ms step to −20 mV (to measure voltage dependent block). The voltage protocol was applied every 15 seconds in the absence and in the presence of the compounds under investigation. […] Current amplitude (pA) was measured in the peak 1 and 2. The average of last 3 sweeps of each liquid period (vehicle, compound under investigation, full block) was calculated. Nickel-sensitive current was used to calculate the % of inhibition in the presence of the compound under investigation.

[1] = voltage dependent block (VDB), read-out: Cav3.1 (VDB) IC50
[2] = patch clamp, HEK-293 natClytin/TASK1+Cav3.1 cells, class symbols, read-out: Human Cav3.1 IC50

Sequence of Human Cav3.1 (O43497 whole entry): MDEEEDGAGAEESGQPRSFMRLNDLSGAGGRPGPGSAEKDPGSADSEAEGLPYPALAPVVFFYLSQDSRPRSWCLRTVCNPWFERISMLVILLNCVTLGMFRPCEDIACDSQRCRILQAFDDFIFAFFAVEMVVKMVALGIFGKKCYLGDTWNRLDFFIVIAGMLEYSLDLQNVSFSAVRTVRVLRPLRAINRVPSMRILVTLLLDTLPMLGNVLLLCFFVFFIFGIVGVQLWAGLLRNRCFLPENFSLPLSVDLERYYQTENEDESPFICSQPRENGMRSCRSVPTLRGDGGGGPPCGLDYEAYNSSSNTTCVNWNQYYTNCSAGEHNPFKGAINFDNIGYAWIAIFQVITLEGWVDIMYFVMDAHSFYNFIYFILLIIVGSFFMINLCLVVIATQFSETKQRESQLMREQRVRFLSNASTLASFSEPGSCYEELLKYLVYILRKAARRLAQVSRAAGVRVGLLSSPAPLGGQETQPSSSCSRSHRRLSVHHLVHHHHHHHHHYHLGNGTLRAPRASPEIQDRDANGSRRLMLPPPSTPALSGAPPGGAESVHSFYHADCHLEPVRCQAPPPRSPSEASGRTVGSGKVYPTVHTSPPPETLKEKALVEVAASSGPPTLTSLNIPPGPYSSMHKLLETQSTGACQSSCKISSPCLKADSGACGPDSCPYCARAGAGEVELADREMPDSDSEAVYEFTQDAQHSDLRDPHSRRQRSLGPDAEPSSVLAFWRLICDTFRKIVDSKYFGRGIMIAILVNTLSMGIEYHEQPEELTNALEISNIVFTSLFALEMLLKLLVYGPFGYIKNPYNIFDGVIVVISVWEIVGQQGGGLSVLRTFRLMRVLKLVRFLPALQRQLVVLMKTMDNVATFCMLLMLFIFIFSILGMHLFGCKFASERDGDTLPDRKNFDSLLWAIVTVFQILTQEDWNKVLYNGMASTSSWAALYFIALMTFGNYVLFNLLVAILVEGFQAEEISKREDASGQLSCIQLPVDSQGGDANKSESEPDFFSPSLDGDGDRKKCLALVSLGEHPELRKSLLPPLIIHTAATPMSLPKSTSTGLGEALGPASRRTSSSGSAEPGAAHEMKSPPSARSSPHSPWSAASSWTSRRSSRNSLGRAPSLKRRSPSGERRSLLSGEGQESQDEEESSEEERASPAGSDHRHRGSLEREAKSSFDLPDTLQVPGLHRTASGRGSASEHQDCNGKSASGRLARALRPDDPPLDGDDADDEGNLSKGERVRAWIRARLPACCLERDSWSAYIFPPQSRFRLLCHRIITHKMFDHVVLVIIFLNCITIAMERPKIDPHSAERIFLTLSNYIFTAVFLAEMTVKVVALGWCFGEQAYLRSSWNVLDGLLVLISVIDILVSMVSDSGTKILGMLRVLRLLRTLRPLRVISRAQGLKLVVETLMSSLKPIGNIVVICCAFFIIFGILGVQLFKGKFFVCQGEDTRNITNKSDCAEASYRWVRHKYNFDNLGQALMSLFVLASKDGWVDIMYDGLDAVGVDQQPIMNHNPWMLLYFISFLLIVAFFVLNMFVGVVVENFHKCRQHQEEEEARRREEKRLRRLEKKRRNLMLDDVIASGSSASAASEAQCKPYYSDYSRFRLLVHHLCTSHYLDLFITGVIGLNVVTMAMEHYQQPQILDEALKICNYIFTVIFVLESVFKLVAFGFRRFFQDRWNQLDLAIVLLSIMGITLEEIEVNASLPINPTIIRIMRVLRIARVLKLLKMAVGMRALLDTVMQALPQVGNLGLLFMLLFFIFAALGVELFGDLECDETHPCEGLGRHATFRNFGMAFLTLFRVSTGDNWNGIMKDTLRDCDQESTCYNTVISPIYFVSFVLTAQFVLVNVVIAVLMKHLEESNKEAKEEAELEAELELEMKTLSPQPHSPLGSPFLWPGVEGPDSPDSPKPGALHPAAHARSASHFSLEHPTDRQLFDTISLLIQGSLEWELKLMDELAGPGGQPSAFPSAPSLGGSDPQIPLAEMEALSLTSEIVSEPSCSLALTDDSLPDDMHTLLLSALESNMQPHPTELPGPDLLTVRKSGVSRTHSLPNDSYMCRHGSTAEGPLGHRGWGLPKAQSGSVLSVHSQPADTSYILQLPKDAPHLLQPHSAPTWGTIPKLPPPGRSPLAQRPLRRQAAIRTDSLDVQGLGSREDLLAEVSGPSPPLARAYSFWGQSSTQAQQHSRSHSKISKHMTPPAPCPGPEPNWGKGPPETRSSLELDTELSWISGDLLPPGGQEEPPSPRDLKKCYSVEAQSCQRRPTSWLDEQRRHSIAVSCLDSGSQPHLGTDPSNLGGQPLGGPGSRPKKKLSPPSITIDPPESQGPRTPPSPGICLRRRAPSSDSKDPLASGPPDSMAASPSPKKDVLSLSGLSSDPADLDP

| Compound | IC50 [1] | IC50 [2] |
| --- | --- | --- |
| CC1(C)CCC(=O)N1CCN1CC2(CCC(C(=O)Nc3cc(F)cc(C(F)F)c3)CC2)C1 [Example 71] | 588 nM |  |
| O=C(Nc1cc(F)cc(Cl)c1)C1CCC2(CC1)CN(CCC1CCC(F)(F)CC1)C2 [Example 13] | 239 nM | < 1000 nM |
| COc1cc(F)cc(NC(=O)C2CCC3(CC2)CN(CC(=O)NC2(C(F)(F)F)CC2)C3)c1 [Example 82] | 238 nM |  |
| CC(C)(C)NC(=O)CN1CC2(CCC(C(=O)Nc3cccc(Cl)c3)CC2)C1 [Example 39] | 294 nM |  |
| CC1(S(=O)(=O)NCCN2CC3(CCC(C(=O)Nc4cc(F)cc(C(F)F)c4)CC3)C2)CC1 [Example 76] | 550 nM |  |
| CC(C)(C)CCN1CC2(CCC(C(=O)NC34CC5CC(CC(C5)C3)C4)CC2)C1 [Example 154] | 1290 nM |  |
| Cc1cc(NC(=O)C2CCC3(CC2)CN(CC(=O)NC2(C(F)(F)F)CC2)C3)ccc1F [Example 132] | 400 nM |  |
| O=C(Nc1cc(F)cc(Cl)c1)C1CCC2(CC1)CN(Cc1ccc(Cl)cc1)C2 [Example 11] |  | 1000 to 10000 nM |
| CC(C)(C)NC(=O)CN1CC2(CCC(C(=O)Nc3cc(F)cc(Cl)c3)CC2)C1 [Example 25] | 174 nM | < 1000 nM |
| CC(C)(C)CCN1CC2(CCC(C(=O)Nc3cc(F)cc(C(F)F)c3)CC2)C1 [Example 33] | 339 nM | < 1000 nM |
| O=C(CN1CC2(CCC(C(=O)NC34CCC(CC3)CC4)CC2)C1)NC1(C(F)(F)F)CC1 [Example 148] | 357 nM |  |
| COc1cc(F)cc(NC(=O)C2CCC3(CC2)CN(CC2(C#N)CCCCC2)C3)c1 [Example 96] | 814 nM |  |
| COc1cc(F)cc(NC(=O)C2CCC3(CC2)CN(CCS(=O)(=O)C(C)(C)C)C3)c1 [Example 88] | 1010 nM |  |
| CC(C)(C)NC(=O)CN1CC2(CCC(C(=O)NC34CCC(CC3)CC4)CC2)C1 [Example 8] | 663 nM | < 1000 nM |
| CC(C)(C)S(=O)(=O)CCN1CC2(CCC(C(=O)Nc3cccc(Cl)c3)CC2)C1 [Example 106] | 739 nM |  |
| O=C(CN1CC2(CCC(C(=O)Nc3ccc(Cl)c(F)c3)CC2)C1)NC1(C(F)(F)F)CC1 [Example 120] | 1070 nM |  |
| CC(C)(C)NC(=O)CN1CC2(CCC(CNC(=O)c3cccc(Cl)c3)CC2)C1 [Example 145] | 569 nM |  |
| O=C(CN1CC2(CCC(CNC(=O)c3cccc(Cl)c3)CC2)C1)NC1(C(F)(F)F)CC1 [Example 147] | 534 nM |  |
| CC(C)(NC(=O)CN1CC2(CCC(C(=O)Nc3cccc(C(F)(F)F)c3)CC2)C1)C(F)(F)F [Example 66] | 372 nM |  |
| CC(C)(C)c1coc(CN2CC3(CCC(C(=O)Nc4cc(F)cc(Cl)c4)CC3)C2)n1 [Example 20] | 988 nM | < 1000 nM |
| CC(C)(C)S(=O)(=O)CCN1CC2(CCC(C(=O)Nc3cc(F)cc(C(F)F)c3)CC2)C1 [Example 87] | 855 nM |  |
| COCCNC(=O)CN1CC2(CCC(C(=O)Nc3cc(F)cc(Cl)c3)CC2)C1 [Example 18] |  | 1000 to 10000 nM |
| CC(C)(C)S(=O)(=O)CCN1CC2(CCC(C(=O)Nc3cc(F)cc(Cl)c3)CC2)C1 [Example 95] | 597 nM |  |
| CC(C)(C)NC(=O)CN1CC2(CCC(C(=O)Nc3cc(F)cc(OC(F)F)c3)CC2)C1 [Example 7] | 118 nM | < 1000 nM |
| O=C(Nc1cc(F)cc(C(F)F)c1)C1CCC2(CC1)CN(CCC1CCC(F)(F)CC1)C2 [Example 37] | 323 nM | < 1000 nM |
| O=C(Nc1cc(F)cc(Cl)c1)C1CCC2(CC1)CN(CC1(F)CCC(F)(F)CC1)C2 [Example 73] | 333 nM |  |
| N#CC1(CN2CC3(CCC(C(=O)Nc4cc(F)cc(Cl)c4)CC3)C2)CCC(F)(F)CC1 [Example 107] | 427 nM |  |

| Compound | IC50 [1] | IC50 [2] |
| --- | --- | --- |
| CN(C(=O)CN1CC2(CCC(C(=O)Nc3cc(F)cc(C(F)F)c3)CC2)C1)C1CCCC1 [Example 35] | 320 nM | < 1000 nM |
| CCC(C)(C)NC(=O)CN1CC2(CCC(C(=O)Nc3cc(F)cc(Cl)c3)CC2)C1 [Example 10, N-(3-chloro-5-fluorophenyl)-2-(2-oxo-2-(tert-pentylamino)ethyl)-2-azaspiro[3.5]nonane-7-carboxamide] | 142 nM | < 1000 nM |
| CC(C)(C)NC(=O)CN1CC2(CCC(C(=O)NC34CC5CC(CC(C5)C3)C4)CC2)C1 [Example 26] |  | 1000 to 10000 nM |
| CCC(C)(C)N(C)C(=O)CN1CC2(CCC(C(=O)Nc3cc(F)cc(C(F)F)c3)CC2)C1 [Example 34] | 199 nM | < 1000 nM |
| COCC(C)(C)NC(=O)CN1CC2(CCC(C(=O)Nc3cc(F)cc(C(F)F)c3)CC2)C1 [Example 45] | 191 nM |  |
| N#CC1(CN2CC3(CCC(C(=O)NCc4cc(F)cc(Cl)c4)CC3)C2)CCCCC1 [Example 131] | 664 nM |  |
| O=C(Nc1cc(F)cc(C(F)F)c1)C1CCC2(CC1)CN(CCC1CCCC1)C2 [Example 31] | 376 nM | < 1000 nM |
| CC(C)(C)NC(=O)CN1CC2(CCC(C(=O)Nc3cccc(OC(F)F)c3)CC2)C1 [Example 55] | 296 nM |  |
| CC(C)(C)NC(=O)CN1CC2(CCC(C(=O)Nc3cc(Cl)cc(Cl)c3)CC2)C1 [Example 1, 2-(2-(tert-butylamino)-2-oxoethyl)-N-(3,5-dichlorophenyl)-2-azaspiro[3.5]nonane-7-carboxamide] | 176 nM | < 1000 nM |
| O=C(CN1CC2(CCC(C(=O)Nc3cccc(Cl)c3)CC2)C1)NC1(C(F)(F)F)CC1 [Example 104] | 302 nM |  |
| CC(C)(NC(=O)CN1CC2(CCC(C(=O)Nc3cccc(OC(F)(F)F)c3)CC2)C1)C(F)(F)F [Example 70] | 333 nM |  |
| CCOc1cccc(NC(=O)C2CCC3(CC2)CN(CC(=O)NC2(C(F)(F)F)CC2)C3)c1 [Example 114] | 1130 nM |  |
| N#CC1(CN2CC3(CCC(C(=O)Nc4cc(F)cc(Cl)c4)CC3)C2)CCCC1 [Example 130] | 296 nM |  |
| CC(C)(C)NC(=O)CN1CC2(CCC(C(=O)Nc3cccc(Cl)c3)CC2)C1 [Example 2] |  | < 1000 nM |
| O=C(Nc1cc(F)cc(C(F)F)c1)C1CCC2(CC1)CN(CC(F)(F)C1CCCCC1)C2 [Example 92] | 905 nM |  |
| N#CC1(CN2CC3(CCC(C(=O)Nc4cc(F)cc(C(F)F)c4)CC3)C2)CC1 [Example 134] | 1500 nM |  |
| O=C(CN1CC2(CCC(C(=O)Nc3cccc(C(F)F)c3)CC2)C1)NC1(C(F)(F)F)CC1 [Example 111] | 932 nM |  |
| N#CC1(CN2CC3(CCC(C(=O)Nc4cc(F)cc(Cl)c4)CC3)C2)CCOC1 (stereo not drawn) [Example 142] | 2230 nM |  |
| Cc1cc(Cl)cc(NC(=O)C2CCC3(CC2)CN(CC2(C#N)CCOCC2)C3)c1 [Example 141] | 1200 nM |  |
| CC1(NC(=O)CN2CC3(CCC(C(=O)Nc4cc(F)cc(Cl)c4)CC3)C2)CCC1 [Example 12] | 112 nM | < 1000 nM |
| O=C(Nc1cc(F)cc(Cl)c1)C1CCC2(CC1)CN(CCC1CCCC1)C2 [Example 17] | 182 nM | < 1000 nM |
| O=C(NC12CCC(CC1)CC2)C1CCC2(CC1)CN(CC1(F)CCC(F)(F)CC1)C2 [Example 149] | 688 nM |  |
| O=C(CN1CC2(CCC(C(=O)Nc3ccc(F)c(OC(F)(F)F)c3)CC2)C1)NC1(C(F)(F)F)CC1 [Example 123] | 297 nM |  |
| O=C(Nc1cc(F)cc(Cl)c1)C1CCC2(CC1)CN(CC(F)C1CCCC1)C2 (stereo not drawn) [Example 77] | 439 nM |  |
| O=C(CN1CC2(CCC(C(=O)Nc3cccc(Cl)c3)CC2)C1)NC1(C(F)(F)F)CCC1 [Example 105] | 204 nM |  |
| CC(C)(C#N)CN1CC2(CCC(C(=O)Nc3cc(F)cc(Cl)c3)CC2)C1 [Example 121] | 1260 nM |  |
| O=C(Nc1cc(F)cc(Cl)c1)C1CCC2(CC1)CN(Cc1cccc(Cl)c1)C2 [Example 23] | 467 nM | < 1000 nM |
